One molecule from paper PMC8246065 (The EMBO Journal, 2021) can be followed below.

The assay deals with T1, NOD1 H517A (Homo sapiens, UniProt Q9Y239, H517A).
T1 construct: made in house
T1 sequence (Q9Y239 1-953 H517A): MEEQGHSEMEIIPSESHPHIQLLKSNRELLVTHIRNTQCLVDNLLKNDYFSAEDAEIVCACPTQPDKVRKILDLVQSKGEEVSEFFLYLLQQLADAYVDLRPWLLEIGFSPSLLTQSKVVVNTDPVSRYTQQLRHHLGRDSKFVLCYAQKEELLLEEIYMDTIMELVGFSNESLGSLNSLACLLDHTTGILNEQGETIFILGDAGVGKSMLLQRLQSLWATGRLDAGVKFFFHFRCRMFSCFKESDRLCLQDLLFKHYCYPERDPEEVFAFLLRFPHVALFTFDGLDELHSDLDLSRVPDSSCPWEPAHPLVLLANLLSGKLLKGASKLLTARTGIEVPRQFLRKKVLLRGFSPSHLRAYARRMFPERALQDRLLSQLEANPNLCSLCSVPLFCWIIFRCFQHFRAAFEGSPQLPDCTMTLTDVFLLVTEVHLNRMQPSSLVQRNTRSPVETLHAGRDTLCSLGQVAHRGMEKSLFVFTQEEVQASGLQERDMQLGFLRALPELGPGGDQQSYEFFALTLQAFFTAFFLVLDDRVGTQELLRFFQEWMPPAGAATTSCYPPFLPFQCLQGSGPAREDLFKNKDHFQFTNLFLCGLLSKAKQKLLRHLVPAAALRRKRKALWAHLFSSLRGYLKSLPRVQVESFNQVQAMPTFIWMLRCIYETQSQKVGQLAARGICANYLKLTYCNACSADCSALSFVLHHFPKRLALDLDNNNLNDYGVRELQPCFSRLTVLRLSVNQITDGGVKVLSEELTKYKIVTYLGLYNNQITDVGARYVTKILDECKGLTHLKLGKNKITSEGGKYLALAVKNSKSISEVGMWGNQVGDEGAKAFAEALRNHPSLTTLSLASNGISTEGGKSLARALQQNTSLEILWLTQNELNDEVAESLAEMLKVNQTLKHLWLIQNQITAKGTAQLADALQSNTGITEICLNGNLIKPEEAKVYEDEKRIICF
The assay can be described thus: MST binding to purified NOD1 H517A-GFP. As to the method: The mutagenesis was performed with Q5® site‐directed mutagenesis kit (E0554, NEB) according to the manufacturer's instructions. The primers used in this study were as follows: NOD1 E157A F: 5′‐[…]gcg[…]‐3′, NOD1 E157A R: 5′‐[…]‐3′, NOD1 D161A F: 5′‐[…]gcg[…]‐3′, NOD1 D161A R: 5′‐[…]‐3′, NOD1 D203A F: 5′‐[…]gcg[…]‐3′, D203A R: 5′‐[…]‐3′, L218A F: 5′‐[…]gcg[…]‐3′, L218A R: 5′‐[…]‐3′, R237A F: 5′‐[…]gcg[…]‐3′, R237A R: 5′‐[…]‐3′, H257A F: 5′‐[…]gcg[…]‐3′, H257A R: 5′‐[…]‐3′, E267A F: 5′‐[…]gcg[…]‐3′, E267A R: 5′‐[…]‐3′, H290A F: 5′‐[…]gcg[…]‐3′, H290A R: 5′‐[…]‐3′, E306A F: 5′‐[…]gcg[…]‐3′, E306A R: 5′‐[…]‐3′, K324A F: 5′‐[…]gcg[…]‐3′, K324A R: 5′‐[…]‐3′, K328A F: 5′‐[…]gcg[…]‐3′, K328A R: 5′‐[…]‐3′, R340A F: 5′‐[…]gcg[…]‐3′, R340A R: 5′‐[…]‐3′, R344A F: 5′‐[…]gcg[…]‐3′, R344A R: 5′‐[…]‐3′, R350A F: 5′‐[…]gcg[…]‐3′, R350A R: 5′‐[…]‐3′, D372A F: 5′‐[…]gcg[…]‐3′, D372A R: 5′‐[…]‐3′, R373A F: 5′‐[…]gcg[…]‐3′, R373A R: 5′‐[…]‐3′, R399A F: 5′‐[…]gcg[…]‐3′, R399A R: 5′‐[…]‐3′, D423A F: 5′‐[…]gcg[…]‐3′, D423A R: 5′‐[…]‐3′, R435A F: 5′‐5′‐[…]gcg[…]‐3′, R435A R: 5′‐[…]‐3′, Q484A F: 5′‐[…]gcg[…]‐3′, Q484A R: 5′‐[…]‐3′, L495A F: 5′‐[…]gcg[…]‐3′, L495A R: 5′‐[…]‐3′, E514A F: 5′‐[…]gcg[…]‐3′, E514A R: 5′‐[…]‐3′, H517A F: 5′‐[…]gcg[…]‐3′, H517A R: 5′‐[…]‐3′, L540A F: 5′‐[…]gcg[…]‐3′, L540A R: 5′‐[…]‐3′, F544A F: 5′‐[…]gcg[…]‐3′, and F544A R: 5′‐[…]‐3′.

Take `CCCCCCCCCCCCC/C=C/[C@@H](O)[C@@H](N)COP(=O)(O)O` [S1P, sphingosine‐1‐phosphate]: the Kd is around 15 µM (Kd value of NOD1 H517A with S1P) and 13.7 ± 6.1 µM (Kd(NOD1 H517A: S1P), Fig 7E).

What is called Kd is the equilibrium constant for the complex coming apart. A high value points to weaker binding.
